# Experimental data as given in US10053437B2, “Salt of dicarboxylic acid compound” (Daiichi Sankyo Company, Limited, priority 2014, dated 2018).
# Where a name gives a salt, the structure may show the parent alone. Read-outs that look alike come from different tables or passages of the source.
# Legend:
# [1] = Measurement of solubility (shaking at 37° C., UHPLC); assay type: physicochemical; settings: for solubility at 24 h / solubility at 30 min: thermodynamic from solid; for Solubility diluted McIlvaine buffer pH 6.0: diluted McIlvaine buffer pH 6.0, shaking at 37° C. for 24 hours; for Solubility Mc pH 6.0: diluted McIlvaine buffer pH 6.0, shaking at 37° C. for 30 minutes
# Experimental: With regard to the measurement of solubility, solubility was calculated by the following operations.
# Approximately 5 mg of a sample was weighed into a test tube, and then 5 mL each solution (see below) that had previously been set at 37° C. was added to the test tube.
# Using Thermomixer Comfort (a shaker) manufactured by Eppendorf, the test tube was intensively shaken at 37° C. for 30 seconds at 750 rpm, and was then left at rest for 4 minutes 30 seconds. This shaking and resting operation was repeated 5 times (30 minutes in total).
# The solutions obtained 30 minutes and 24 hours after initiation of the shaking were promptly filtered through a membrane filter (pore diameter: 0.45 μm), and the obtained filtrates were each diluted with a sample solution to an appropriate concentration. The concentration of a compound in the filtrate was measured by UHPLC, and solubility was then calculated.
# The following solutions were used. • JP1: 2.0 g of sodium chloride was dissolved in 7.0 mL of hydrochloric acid and water to prepare 1000 mL of a solution (pH: about 1.2). • JP2: 118 mL of a 0.2 mol/L sodium hydroxide test solution and water were added to 250 mL of a 0.2 mol/L potassium dihydrogen phosphate test solution to prepare 1000 mL of a solution (pH: about 6.8). • Water: Ultrapure water (for use in LC/MS) manufactured by Wako Pure Chemical Industries, Ltd. was used. • Mc pH 6.0: A diluted McIlvaine buffer (pH 6.0) manufactured by Kanto Chemical Co., Inc. was used. • Mc pH 7.5: A diluted McIlvaine buffer (pH 7.5) manufactured by Kanto Chemical Co., Inc. was used.
# Conditions for HPLC are as follows.
# Apparatus: UHPLC H-Class manufactured by Waters
# Mobile phase: A: 0.01 mol/L aqueous potassium phosphate solution (pH 4.0); B: acetonitrile
# Column: Acquity UPLC BEH C18, 2.1 mm ID×75 mm, particle diameter: 1.7 μm (Waters)
# Column temperature: 40° C.
# Detection wavelength: 220 nm
# [2] = system: intestinal phosphate absorption; assay: Rat 33P phosphate oral challenge test (intestinal phosphate absorption suppression test); assay type: in vivo; settings: male SD rats, 30 mg/kg forced oral administration, serum radioactivity AUC0-60 min vs control group
# Experimental: (Test Example) Rat ^33P Phosphate Oral Challenge Test (Intestinal Phosphate Absorption Suppression Test)
# Using male SD rats (5-7 weeks old) that had been fasted on the previous day, the compound described in the Examples was suspended or dissolved in a solvent such as 0.5% methyl cellulose (3-6 mg/mL), and the thus obtained solution was administered to each rat at a dose of 30 mg/kg by forced oral administration. On the other hand, regarding a control group, the solvent was administered to each rat at a dose of 5 mL/kg. Thirty minutes after administration, a […] phosphate solution (8.3 mM NaH2PO4, 0.35 MBq/mL) was administered to the rats at a dose of 7.2 mL/kg by forced oral administration. Then, 15, 30, 60, and 120 minutes after administration, blood was collected from the jugular vein of each rat under anesthesia with isoflurane. The radioactivity in […] was measured using a liquid scintillation counter, and the AUC0-60 min was then calculated from the radioactivity value. The obtained value was defined as an amount of phosphate absorbed. The phosphate absorption-inhibiting activity of the compound was calculated according to the following expression. Phosphate absorption-inhibiting activity (%)=[…]
# [3] = JP2 (pH about 6.8), shaking at 37° C. for 30 minutes
# [4] = JP2 (pH about 6.8), shaking at 37° C. for 24 hours
# [5] = shaking at 37° C. for 30 minutes
smiles,measurement,setting,value
"CCN([C@H]1CC[C@H](C(=O)O)CC1)S(=O)(=O)c1cccc(C(=O)Nc2ccc(N3CCCCC3)cc2C(=O)Nc2ccc(CCc3ccc(C(=O)O)cc3)cc2)c1 [Example 7, mono-p-toluenesulfonate of 4-[2-(4-{[2-({3-[(trans-4-carboxycyclohexyl)(ethyl)sulfamoyl]benzoyl}amino)-5-(piperidin-1-yl)benzoyl]amino}phenyl)ethyl]benzoic acid]",Solubility JP1,"[1]; JP1 (pH about 1.2), shaking at 37° C. for 30 minutes",0.7 µg/mL
same,solubility at 24 h,"[1]; JP1 solution (sodium chloride/hydrochloric acid in water), 37 °C, pH 1.2, simulated gastric fluid, JP1 (pH about 1.2), shaking at 37° C. for 24 hours, unit printed as μL, read-out: Solubility JP1",0.1 µg/mL
same,Solubility JP2,[1]; [3],61.7 µg/mL
same,Solubility JP2,[1]; [4],87.5 µg/mL
same,Solubility diluted McIlvaine buffer pH 6.0,[1],1058.4 μg/mL
same,solubility at 30 min,"[1]; diluted McIlvaine buffer pH 7.5, 37 °C, pH 7.5, aqueous buffer, diluted McIlvaine buffer pH 7.5, shaking at 37° C. for 30 minutes, read-out: Solubility Mc pH 7.5",639 µg/mL
same,Solubility water,[1]; [5],0.2 µg/mL
same,Solubility water,[1]; shaking at 37° C. for 24 hours,0.2 µg/mL
"CCN([C@H]1CC[C@H](C(=O)O)CC1)S(=O)(=O)c1cccc(C(=O)Nc2ccc(N3CCCCC3)cc2C(=O)Nc2ccc(CCc3ccc(C(=O)O)cc3)cc2)c1 [Example 1, Disodium 4-[2-(4-{[2-({3-[(trans-4-carboxycyclohexyl) (ethyl)sulfamoyl]benzoyl}amino)-5-(piperidin-1-yl)benzoyl]amino}phenyl)ethyl]benzoate trihydrate]",solubility at 24 h,"[1]; 37 °C, pH 6.8, aqueous buffer, JP2 (pH about 6.8), shaking at 37° C. for 24 hours, unit inferred, read-out: Solubility JP2",10.7 µg/mL
same,solubility at 30 min,"[1]; JP1 solution (sodium chloride/hydrochloric acid in water), 37 °C, pH 1.2, simulated gastric fluid, JP1 (pH about 1.2), shaking at 37° C. for 30 minutes, read-out: Solubility JP1",1 µg/mL
same,solubility at 24 h,"[1]; JP1 solution (sodium chloride/hydrochloric acid in water), 37 °C, pH 1.2, simulated gastric fluid, JP1 (pH about 1.2), shaking at 37° C. for 24 hours, unit inferred, read-out: Solubility JP1",1.3 µg/mL
same,Solubility JP2,"[1]; JP2 (pH about 6.8), shaking at 37° C. for 30 minutes, trihydrate",40.3 µg/mL
same,Solubility Mc pH 6.0,[1]; trihydrate,1.1 μg/mL
same,Solubility diluted McIlvaine buffer pH 6.0,[1]; trihydrate,0.1 μg/mL
same,Solubility water,"[1]; shaking at 37° C. for 30 minutes, trihydrate",949.4 µg/mL
same,Solubility water,"[1]; shaking at 37° C. for 24 hours, trihydrate",960.1 µg/mL
same,Phosphorus absorption-inhibiting activity (%),[2],72%
"CCN([C@H]1CC[C@H](C(=O)O)CC1)S(=O)(=O)c1cccc(C(=O)Nc2ccc(N3CCCCC3)cc2C(=O)Nc2ccc(CCc3ccc(C(=O)O)cc3)cc2)c1 [Example 6, potassium sodium 4-[2-(4-{[2-({3-[(trans-4-carboxycyclohexyl)(ethyl)sulfamoyl]benzoyl}amino)-5-(piperidin-1-yl)benzoyl]amino}phenyl)ethyl]benzoate hydrate]",Solubility JP2,"[1]; JP2 (pH about 6.8), shaking at 37° C. for 30 minutes, hydrate",22.5 µg/mL
same,Solubility JP2,"[1]; JP2 (pH about 6.8), shaking at 37° C. for 24 hours, hydrate",968.5 µg/mL
same,Solubility water,"[1]; shaking at 37° C. for 30 minutes, hydrate",2.2 µg/mL
same,Solubility water,"[1]; shaking at 37° C. for 24 hours, hydrate",940.7 µg/mL
same,Phosphorus absorption-inhibiting activity (%),"[2]; hydrate, 30 mg/kg",59%
"CCN([C@H]1CC[C@H](C(=O)O)CC1)S(=O)(=O)c1cccc(C(=O)Nc2ccc(N3CCCCC3)cc2C(=O)Nc2ccc(CCc3ccc(C(=O)O)cc3)cc2)c1 [Example 8, monopiperazine salt of 4-[2-(4-{[2-({3-[(trans-4-carboxycyclohexyl)(ethyl)sulfamoyl]benzoyl}amino)-5-(piperidin-1-yl)benzoyl]amino}phenyl)ethyl]benzoic acid]",solubility at 24 h,"[1]; JP1 solution (sodium chloride/hydrochloric acid in water), 37 °C, pH 1.2, simulated gastric fluid, JP1 (pH about 1.2), shaking at 37° C. for 24 hours, read-out: Solubility JP1",1.4 µg/mL
same,Solubility JP2,[1]; [3],105.7 µg/mL
same,Solubility JP2,[1]; [4],137.8 µg/mL
same,Solubility Mc pH 6.0,[1],3.3 μg/mL
same,Solubility diluted McIlvaine buffer pH 6.0,[1],0.2 μg/mL
same,Solubility water,[1]; [5],31.7 µg/mL
same,Solubility water,[1]; shaking at 37° C. for 24 hours,429.5 µg/mL
